Tests used:
[1] = test system: catalepsy caused by a single intraperitoneal injection of haloperidol; test: Spontaneous motor activity in the test "Open Field", catalepsy caused by haloperidol; type: in vivo; conditions: sum of movements in Open Field; haloperidol 0.25 mg/kg i.p. alone; male rats
Description: The restoration of spontaneous motor activity in rats as the sum of the movements in the test “Open Field” in the experimental model of a catalepsy caused by a single intraperitoneal (i.p.) injection of haloperidol (0.25 mg/kg, “Ratiopharm,” Germany). Dopamine (0.125 mg/kg, Polfa S.A. (Poland) was administered nasally in 50 μl in the solution of the spray once in each nostril in combination with the oxygen anion radicals (SAR) and/or the active substances of the nitrogen oxide according to the present invention (Group IV, “Composition 1”). The experiments were performed on non-purebred male rats having a body mass of 250±37 g.

duration of sleep = test: Narcotic action of phenobarbital, duration of sleep; type: in vivo; conditions: phenobarbital control 150 mg/kg
From the text: The enhancement of the narcotic effect of the barbiturate phenobarbital in “Composition 3,” administered nasally.

SMILES | Spontaneous Activity [1] | Duration of sleep (duration of sleep) [min]
O=C(CCCN1CCC(O)(c2ccc(Cl)cc2)CC1)c1ccc(F)cc1 [Haloperidol, haloperidol] | 3.6 ± 3.4 | 
CCC1(c2ccccc2)C(=O)NC(=O)NC1=O [Phenobarbital, phenobarbital] |  | 192 ± 29.9
